Results published in ChEMBL document CHEMBL1208702, “Use of 2-[(18)F]fluoroethylazide for the Staudinger ligation - Preparation and characterisation of GABA(A) receptor binding 4-quinolones” (Bioorg Med Chem Lett, 2010).

Assay: Displacement of [3H]Ro151788 from GABA-A receptor in Wistar rat cerebellar membrane after 1 hr by liquid scintillation counting
Type: cell membranes, Cerebellum

CCc1ccc2[nH]cc(C(=O)NCCF)c(=O)c2c1
Ki: 3.6 nM
